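A five-concentration, 48-hour dose response in 96-well plates underlies each endpoint, interpolated linearly between surrounding concentrations. GI50 = concentration required for 50% inhibition of growth. TGI: concentration producing complete growth inhibition.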
Assays:
Assay in all cases: NCI anticancer screen, dose series, 48 h; in the data active = GI50 below about 0.43 µM; inactive = the rest
[1] = test system: UACC-257 melanoma
[2] = test system: KM12 colon
[3] = test system: SR leukemia
[4] = test system: RXF 393 renal
[5] = test system: NCI-H23 lung
[6] = test system: OVCAR-8 ovarian
[7] = test system: HS 578T breast
[8] = test system: SNB-19 CNS
[9] = test system: A549 NSCLC
[10] = test system: HL-60(TB) leukemia
[11] = test system: COLO 205 colon
[12] = test system: BT-549 breast
[13] = test system: SF-539 CNS
[14] = test system: MDA-MB-231 breast
[15] = test system: DU-145 prostate
[16] = test system: SK-MEL-28 melanoma
[17] = test system: TK-10 renal
[18] = test system: MOLT-4 leukemia
[19] = test system: 786-0 renal
[20] = test system: MALME-3M melanoma
[21] = test system: MCF7 breast
[22] = test system: CAKI-1 renal
[23] = test system: SW-620 colon
[24] = test system: UO-31 renal
[25] = test system: OVCAR-3 ovarian
[26] = test system: SF-295 CNS
[27] = test system: HOP-62 NSCLC
[28] = test system: SF-268 CNS
[29] = test system: SNB-75 CNS
[30] = test system: HCT-15 colon
[31] = test system: CCRF-CEM leukemia
[32] = test system: RPMI-8226 leukemia
[33] = test system: SK-MEL-2 melanoma
[34] = test system: HCC-2998 colon
[35] = test system: IGROV1 ovarian
[36] = test system: UACC-62 melanoma
[37] = test system: NCI/ADR-RES ovarian
[38] = test system: ACHN renal
[39] = test system: K-562 leukemia
[40] = test system: OVCAR-5 ovarian
[41] = test system: SN12C renal
[42] = test system: SK-MEL-5 melanoma
[43] = test system: MDA-MB-435
[44] = test system: EKVX NSCLC
[45] = test system: OVCAR-4 ovarian
[46] = test system: HOP-92 NSCLC
[47] = test system: NCI-H460 lung
[48] = test system: U251 CNS
[49] = test system: SK-OV-3 ovarian
[50] = test system: HCT-116 colon
[51] = test system: A498 renal
[52] = test system: PC-3 prostate
[53] = test system: HT29 colon
[54] = test system: LOX IMVI melanoma
[55] = test system: NCI-H226 lung

CCOc1ccccc1/C=N\N=C(N/N=C/c1ccccc1OCC)N/N=C/c1ccccc1OCC
2.98 µM: TGI [11]
8.39 µM: TGI [7]
6.15 µM: TGI [49]
3.71 µM: TGI [42]
6.79 µM: TGI [25]
> 100 µM: TGI [1] | TGI [2] | TGI [3] | TGI [4] | TGI [5] | TGI [6] | TGI [8] | TGI [9] | TGI [10] | TGI [12] | TGI [13] | TGI [15] | TGI [16] | TGI [17] | TGI [18] | TGI [19] | TGI [20] | TGI [21] | TGI [22] | TGI [23] | TGI [24] | TGI [26] | TGI [27] | TGI [28] | TGI [29] | TGI [30] | TGI [31] | TGI [32] | TGI [33] | TGI [34] | TGI [35] | TGI [36] | TGI [37] | TGI [38] | TGI [39] | TGI [40] | TGI [41] | TGI [43] | TGI [44] | TGI [45] | TGI [47] | TGI [48] | TGI [50] | TGI [52] | TGI [53] | TGI [54] | TGI [55]
inactive: GI50 [1] 3.12 µM | GI50 [2] 1.72 µM | GI50 [3] 3.23 µM | GI50 [4] 2.67 µM | GI50 [5] 2.77 µM | GI50 [6] 3.01 µM | GI50 [7] 2.22 µM | GI50 [8] 2.2 µM | GI50 [9] 2.65 µM | GI50 [10] 5.21 µM | GI50 [11] 1.43 µM | GI50 [12] 2.67 µM | GI50 [13] 2.41 µM | GI50 [14] 1.73 µM | GI50 [15] 2.45 µM | GI50 [16] 4.38 µM | GI50 [17] 2.81 µM | GI50 [18] 4.69 µM | GI50 [19] 2.71 µM | GI50 [20] 5.69 µM | GI50 [21] 0.715 µM | GI50 [22] 1.4 µM | GI50 [23] 3.24 µM | GI50 [24] 1.73 µM | GI50 [25] 0.532 µM | GI50 [26] 2.41 µM | GI50 [27] 1.85 µM | GI50 [28] 1.62 µM | GI50 [29] 2.2 µM | GI50 [30] 0.95 µM | GI50 [31] 3.21 µM | GI50 [32] 1.73 µM | GI50 [33] 2.78 µM | GI50 [34] 0.826 µM | GI50 [35] 3.04 µM | GI50 [36] 2.05 µM | GI50 [37] 1.7 µM | GI50 [38] 1.56 µM | GI50 [39] 3.76 µM | GI50 [40] 2.52 µM | GI50 [41] 2.32 µM | GI50 [42] 1.69 µM | GI50 [43] 3.44 µM | GI50 [44] 3.04 µM | GI50 [45] 1.17 µM | GI50 [46] 1.24 µM | GI50 [47] 1.35 µM | GI50 [48] 1.53 µM | GI50 [49] 1.65 µM | GI50 [50] 0.763 µM | GI50 [51] 2.17 µM | GI50 [52] 2.06 µM | GI50 [53] 2.23 µM | GI50 [54] 1.8 µM | GI50 [55] 2.74 µM
7.52 µM: TGI [14]
5.63 µM: TGI [46]
8.45 µM: TGI [51]

From PubChem BioAssay (NCI)
